The values below come from US20230000842A1, “METHODS OF TREATING CARTILAGE DISORDERS THROUGH INHIBITION OF CLK AND DYRK” (SAMUMED, LLC, priority 2019, published 2023).

One test addresses CLK2 kinase (Homo sapiens, UniProt P49760). Nature of the test: CLK2 kinase activity assay (Z-lyte FRET).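 Also: FRET read-out as coumarin to fluorescein emission ratio, unphosphorylated peptide as 0% and phosphorylated peptide as 100% controls, duplicate reactions, non-linear regression fit of dose-response curves.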 Type of test: biochemical. To be noted: Z-lyte Ser/Thr 6 peptide, 60 μM ATP, 1 h at room temperature.
The next test deals with CLK3 kinase (Homo sapiens, UniProt P49761). Nature of the test: CLK3 kinase activity assay (Z-lyte FRET).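 Also: kinase activity read as coumarin/fluorescein emission ratio by FRET, unphosphorylated peptide as 0% and phosphorylated peptide as 100% control, values from non-linear regression of dose-response curves.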 Type of test: biochemical. To be noted: Z-lyte Ser/Thr 18 peptide, 156 μM ATP, 1 h at room temperature.
Chain of CLK3 kinase (P49761 whole entry): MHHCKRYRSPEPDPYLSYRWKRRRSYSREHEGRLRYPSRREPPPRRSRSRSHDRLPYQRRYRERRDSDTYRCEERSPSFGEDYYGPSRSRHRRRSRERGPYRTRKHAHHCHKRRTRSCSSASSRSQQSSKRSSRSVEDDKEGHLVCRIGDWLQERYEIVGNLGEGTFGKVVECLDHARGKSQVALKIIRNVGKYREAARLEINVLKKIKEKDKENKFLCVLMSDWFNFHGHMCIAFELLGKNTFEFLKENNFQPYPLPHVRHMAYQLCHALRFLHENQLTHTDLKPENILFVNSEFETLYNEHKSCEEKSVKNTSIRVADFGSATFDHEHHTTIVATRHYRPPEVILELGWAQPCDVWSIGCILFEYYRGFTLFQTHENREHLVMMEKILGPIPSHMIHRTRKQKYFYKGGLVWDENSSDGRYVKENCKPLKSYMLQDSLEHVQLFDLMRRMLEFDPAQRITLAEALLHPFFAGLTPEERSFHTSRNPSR
In test [1] the test system is MMP-3 levels in supernatant of chondrocytes stimulated with IL1-β. Nature of the test: Chondrocyte protection assay compound screening (MMP-3 LANCE Ultra). Type of test: cell-based, human. To be noted: IL1-β 10 ng/mL overnight, 11-point curves from 3 μM to 0.05 nM; for Emax: read-out: Maximum % Inhibition. The method, then: Human Chondrocyte Cell Culture: Primary human chondrocytes were purchased from Lonza (Walkersville, Md.) and expanded in Chondrocyte Growth Media (CGM, Lonza). Cells between passage 2 and 5 were used for the experiments.
Chondrocytes were plated at 8,000 cells/well in 40 μL/well Chondrocyte Differentiation Medium (Lonza; 500 mL Basal Medium, 25 mL FBS, 0.5 mL GA-1000, 1 mL R3-IGF, 2.5 mL bFGF, 0.5 mL Transferrin, and 1 mL Insulin). After 2 hours of incubation at 37° C. and 5% CO2, IL1-β (Peprotech, Rocky Hill, N.J.) was added to a final concentration of 10 ng/mL. 11 wells in 1 row were left unstimulated for normalization and calculating EC50 values. Cells were incubated at 37° C. and 5% CO2 overnight. Assay plates are spun, 25 μl of supernatant media was collected using (S2 pipettor, Apricot Designs). Cells were lysed using 10 μL of (Cell Titer-Glo, Promega). Luminescent signal detected using an En Vision Multilabel reader (Perkin Elmer). MMP-3 levels were measured in supernatant. Supernatant diluted 1:7 in DMEM. MMP-3 levels in the supernatant were measured using MMP-3 LANCE Ultra detection kit (Perkin Elmer). Briefly, 5 μL of diluted supernatant was transferred to low-volume 384 well plates using (S2 pipettor, Apricot Designs). A standard curve was prepared using MMP-3 analyte (range […]). 1.7 μL of 8× mix of Eu-labelled anti-MMP-3 antibody and ULight labelled anti-MMP-3 antibody was added to the plates using Mantis Liquid handler (Formulatrix). Plates were incubated overnight at room temperature. LANCE signal was detected using an EnVision Multilabel reader (Perkin Elmer), equipped with TR-FRET using excitation wavelength of 320 nm and two emission wavelengths of 615 nm and 665 nm. Data was analyzed according to the kit protocol, using the ratio of […] and the standard curve values were used to calculate the amount of MMP3 in the […] (in pg/ml). The normalized averages (fold change over IL1-β stimulated) for each compound concentration were calculated. EC50 and maximum % inhibition values were calculated using the dose-response nonlinear regression curve-fit in Dotmatics.

Test [2] relates to primary human mesenchymal stem cells (hMSCs). As to the kind of experiment: Chondrogenesis screening using primary human mesenchymal stem cells. To be noted: Homo sapiens, Mesenchymal stem cells, hMSC chondrogenesis; for Emax: maximum activity relative to TGF-β3 (10 ng/mL) positive control, read-out: Max. Activity as % TGF-β3 activity. Type of test: cell-based. The procedure, abridged:
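Derived values are EC50 for 50% chondrogenesis, maximal activity and the dose giving it. These come from nodule area in passage 3–6 primary hMSCs, expressed as fold change over the mean of 3 same-plate DMSO wells, 2–3 replicates per concentration. TGF-β3 served as positive control.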

Test [3] concerns Wnt pathway activity (SW480 colon carcinoma cells stably expressing the Sp5-Luc reporter). Nature of the test: Wnt pathway activity screening assay (Sp5-Luc reporter gene assay). To be noted: Homo sapiens, SW480, Table 4; SW480 cells stably expressing Sp5-Luc reporter, 10-point dose-response from 10 μM, 36 to 48 hours. (In general: Reporter assays use an easily measured gene product as a stand-in for the process of interest.)

Some results are limits rather than exact numbers.

Chain of CLK2 kinase (P49760 whole entry): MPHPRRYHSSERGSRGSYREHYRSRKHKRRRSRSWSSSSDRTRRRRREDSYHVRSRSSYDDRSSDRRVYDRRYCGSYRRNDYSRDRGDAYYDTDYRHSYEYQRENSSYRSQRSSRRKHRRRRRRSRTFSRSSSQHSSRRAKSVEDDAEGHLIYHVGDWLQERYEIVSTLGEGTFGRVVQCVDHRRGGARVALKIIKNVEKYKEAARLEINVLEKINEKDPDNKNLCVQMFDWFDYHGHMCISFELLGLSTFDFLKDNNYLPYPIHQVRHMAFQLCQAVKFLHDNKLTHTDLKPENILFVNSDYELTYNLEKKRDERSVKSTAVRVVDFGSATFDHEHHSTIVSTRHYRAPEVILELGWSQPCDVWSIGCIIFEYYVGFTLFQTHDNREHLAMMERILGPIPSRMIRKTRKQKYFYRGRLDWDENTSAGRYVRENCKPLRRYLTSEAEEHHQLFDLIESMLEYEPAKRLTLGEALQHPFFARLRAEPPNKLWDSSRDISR

In the case of `O=C(Nc1cc2cc(-c3cncs3)ccc2cn1)c1ccc2c(c1)CNCC2` [compound 592], the EC50 was 2 nM on CLK2 kinase; 43 nM on CLK3 kinase; ≥ 3000 nM in test [1] (Homo sapiens, Chondrocyte). Further, the Emax in test [1] (Homo sapiens, Chondrocyte) stood at 29.7%.
Taken in the same sequence, the figures for `CN(C)CCNc1cc(C(=O)Nc2cc3cc(-c4cnn(C)c4)ccc3cn2)ccn1` [compound 543] were 3 nM, 60 nM, 306 nM and 81.8%.
In the case of `Cn1ncc(-c2ccc3cnc(NC(=O)c4ccc(OC(F)F)cc4)cc3c2)c1CO` [compound 567], the EC50 came to 8 nM on CLK2 kinase; 261 nM on CLK3 kinase; 1370 nM in test [1] (Homo sapiens, Chondrocyte). Besides, the Emax in test [1] (Homo sapiens, Chondrocyte) came out at 69.8%.
On to `Cc1nnc(-c2ccc3cnc(NC(=O)c4ccnc(N(C)C5CCN(C)CC5)c4)cc3c2)s1` [compound 595], for which the EC50 amounted to 19 nM on CLK3 kinase and 2.7 nM in test [1] (Homo sapiens, Chondrocyte). For the same compound, the Emax came to 25.7% in test [2] and 86.2% in test [1] (Homo sapiens, Chondrocyte).
Consider `Cn1cc(-c2ccc3cnc(NC(=O)c4ccc5cnccc5c4)cc3c2)cn1` [compound 560], for which the EC50 at CLK2 kinase was 4 nM; on CLK3 kinase, 85 nM; in test [1] (Homo sapiens, Chondrocyte) it was ≥ 3000 nM. Besides, in test [1] (Homo sapiens, Chondrocyte), the Emax stood at 63.6%.
Taken in the same sequence, the figures for `CN1CCN(c2cc(C(=O)Nc3cc4cc(-c5cnn(C)c5)c(F)cc4cn3)ccn2)CC1` [compound 546] were 2 nM, 21 nM, 0.4 nM and 97.3%.
Regarding `CN1CCN(c2cc(C(=O)Nc3cc4cc(-c5cncs5)ccc4cn3)ccn2)CC1` [compound 591], the EC50 stood at 20 nM on CLK3 kinase and 423 nM in test [1] (Homo sapiens, Chondrocyte). The Emax in test [2] turned out to be 22.3%; in test [1] (Homo sapiens, Chondrocyte), 100%.
For `CN1CCc2cc(C(=O)Nc3cc4cc(-c5cn(C)nn5)ccc4cn3)ccc2C1` [compound 578], the EC50 on CLK3 kinase was found to be 48 nM. In addition, in test [1] (Homo sapiens, Chondrocyte), the EC50 is ≥ 3000 nM and the Emax was 37.6%.
On to `CN1CCN(c2cc(C(=O)Nc3cc4c(Cl)c(-c5cnn(C)c5)ccc4cn3)ccn2)CC1` [compound 547], for which the EC50 on CLK2 kinase was 3 nM; at CLK3 kinase, 43 nM; in test [1] (Homo sapiens, Chondrocyte) it was 898 nM. Besides, the Emax in test [1] (Homo sapiens, Chondrocyte) turned out to be 52.1%.
For the compound `O=C(Nc1c[nH]nc1C(=O)Nc1cncc(-c2cccc(F)c2)c1)c1cncc(F)c1` [compound 2], the EC50 at CLK2 kinase is 72 nM; in test [1] (Homo sapiens, Chondrocyte), 0.4 nM; in test [3] it was 479 nM. Besides, the Emax was 81.5% in test [2] and 58.2% in test [1] (Homo sapiens, Chondrocyte).
Regarding `CN1CCC2(CC1)CN(c1cc(C(=O)Nc3cc4cc(-c5cnn(C)c5)ccc4cn3)ccn1)C2` [compound 554], the EC50 at CLK2 kinase is 1 nM; on CLK3 kinase it was 16 nM; in test [1] (Homo sapiens, Chondrocyte), ≥ 3000 nM. In addition, in test [1] (Homo sapiens, Chondrocyte), the Emax came to 53.7%.
Consider `Cc1nnc(-c2ccc3cnc(NC(=O)c4ccnc(C5CCN(C)CC5)c4)cc3c2)s1` [compound 594], for which the EC50 at CLK2 kinase came to 2 nM; on CLK3 kinase it was 14 nM; in test [1] (Homo sapiens, Chondrocyte), 143 nM. Besides, the Emax in test [1] (Homo sapiens, Chondrocyte) is 35.3%.
Regarding `CN(C)C1CCN(c2cc(C(=O)Nc3cc4cc(-c5cnn(C)c5)ccc4cn3)ccn2)CC1` [compound 552], on CLK3 kinase, the EC50 is 9 nM. In test [1] (Homo sapiens, Chondrocyte), the EC50 amounted to 697 nM and the Emax was found to be 83.2%.
For the compound `CN1CCC2(CC1)CN(c1cc(C(=O)Nc3cc4cc(-c5cnn(C)c5CO)ccc4cn3)ccn1)C2` [compound 568], the EC50 at CLK2 kinase was 3 nM; on CLK3 kinase, 44 nM; in test [1] (Homo sapiens, Chondrocyte), ≥ 3000 nM. Further, the Emax in test [1] (Homo sapiens, Chondrocyte) came to 42.7%.
Taken in the same sequence, the figures for `Cn1cc(-c2ccc3cnc(NC(=O)c4ccnc(OC5CNC5)c4)cc3c2)cn1` [compound 556] were 2 nM, 38 nM, 154 nM and 100%.
`CN1CCCN(c2cc(C(=O)Nc3cc4cc(-c5cnn(C)c5)ccc4cn3)ccn2)CC1` [compound 550] came in with an EC50 on CLK3 kinase of 28 nM. Moreover, in test [1] (Homo sapiens, Chondrocyte), the EC50 was ≥ 3000 nM and the Emax came out at 66.9%.
Take `Cn1ncc(-c2ccc3cnc(NC(=O)c4ccnc(N5CCOCC5)c4)cc3c2)c1CN1CCOCC1` [compound 573]: the EC50 at CLK2 kinase is 2 nM; at CLK3 kinase, 8 nM; in test [1] (Homo sapiens, Chondrocyte), ≥ 3000 nM. The Emax in test [1] (Homo sapiens, Chondrocyte) worked out at 70%.
Turning to `COc1cncc(C(=O)Nc2c[nH]nc2C(=O)Nc2ccc(N3CCC(F)(F)C3)nc2)c1` [compound 6], the EC50 at CLK2 kinase came out at 15 nM; in test [2] (concentration required to induce 50% levels of chondrogenesis with TGF-β3 as positive control, read-out: Conc (nM) of 50% TGF-β3 activity) it was 300 nM; in test [1] (Homo sapiens, Chondrocyte) it was 2.2 nM; in test [3] it was 5.7 nM. Also, the Emax in test [2] was 124%; in test [1] (Homo sapiens, Chondrocyte), 42.1%.
For the compound `NC1CN(c2cc(C(=O)Nc3cc4cc(-c5cnco5)ccc4cn3)ccn2)C1` [compound 590], the EC50 is 4 nM on CLK2 kinase; 40 nM at CLK3 kinase; ≥ 3000 nM in test [1] (Homo sapiens, Chondrocyte). Moreover, the Emax in test [1] (Homo sapiens, Chondrocyte) turned out to be 33.2%.
Taken in the same sequence, the figures for `Cn1cc(-c2ccc3cnc(NC(=O)c4ccnc(N5CC6CC5CN6)c4)cc3c2)cn1` (centres unmarked) [compound 549] were 3 nM, 26 nM, ≥ 3000 nM and 69%.
Turning to `CN1CCN(c2cc(C(=O)Nc3cc4cc(-c5cnn(C6CC6)c5)ccc4cn3)ccn2)CC1` [compound 565], the EC50 turned out to be 6 nM at CLK2 kinase; 71 nM at CLK3 kinase; 12.2 nM in test [1] (Homo sapiens, Chondrocyte). Further, in test [1] (Homo sapiens, Chondrocyte), the Emax was found to be 76.6%.
`CN1Cc2ccc(C(=O)Nc3cc4cc(-c5cncn5C)ccc4cn3)cc2C1` [compound 583]: the EC50 on CLK2 kinase is 2 nM; at CLK3 kinase, 27 nM; in test [1] (Homo sapiens, Chondrocyte), ≥ 3000 nM. Further, the Emax in test [1] (Homo sapiens, Chondrocyte) is 67.5%.
As to `CN(C)CCOc1cc(C(=O)Nc2cc3cc(-c4cnn(C)c4)ccc3cn2)ccn1` [compound 544], the EC50 on CLK2 kinase came out at 2 nM; on CLK3 kinase, 31 nM; in test [1] (Homo sapiens, Chondrocyte) it was 1010 nM. Also, the Emax in test [1] (Homo sapiens, Chondrocyte) was determined as 63.5%.
Turning to `Cn1cc(-c2ccc3cnc(NC(=O)c4ccc5c(c4)CNCC5)cc3c2)cn1` [compound 557], the EC50 came out at 2 nM at CLK2 kinase; 39 nM on CLK3 kinase; 1630 nM in test [1] (Homo sapiens, Chondrocyte). In test [1] (Homo sapiens, Chondrocyte), the Emax is 50.5%.
Regarding `Cn1cc(-c2ccc3cnc(NC(=O)C4=CNC5C=CC=CC5=C4)cc3c2)cn1` (centres unmarked) [compound 559], the EC50 on CLK2 kinase came to 4 nM; at CLK3 kinase it was 66 nM; in test [1] (Homo sapiens, Chondrocyte), 19.1 nM. The Emax in test [1] (Homo sapiens, Chondrocyte) was 41.2%.
Turning to `CN1CCN(c2ccc(C(=O)Nc3cc4cc(-c5cnn(C)c5)ccc4cn3)cn2)CC1` [compound 551], the EC50 on CLK3 kinase turned out to be 78 nM. For the same compound, in test [1], the EC50 is 1060 nM and the “Maximum % Inhibition” value was found to be 100.0%.
Consider `CN1CCN(c2cc(C(=O)Nc3cc4cc(-c5cnn(C)c5N)ccc4cn3)ccn2)CC1` [compound 566], for which, at CLK3 kinase, the EC50 is 34 nM. In test [1] (Homo sapiens, Chondrocyte), the EC50 came to 11.5 nM and the Emax came to 43.8%.
As for `Fc1ccc(-c2cccc3[nH]c(-c4n[nH]c5ncc(-c6cncc(CN7CCCCC7)c6)cc45)cc23)cc1` [compound 634], the EC50 at CLK2 kinase came out at 8 nM; in test [1] (Homo sapiens, Chondrocyte) it was 46.1 nM; in test [3], 3660 nM. In addition, the Emax in test [1] (Homo sapiens, Chondrocyte) is 83.8%.
In turn, `CN1CCN(c2ccc(C(=O)Nc3cc4cc(-c5cnn(C)c5)ccc4cn3)cn2)CC1` [compound 542] showed an EC50 on CLK3 kinase of 36 nM. In test [1], the EC50 amounted to 9.5 nM and the “Maximum % Inhibition” value was 47.6%.
